Experimental data published in patent US6423854B1, “Aminophenol derivatives and their use in cosmetics” (L'Oreal, priority 1997, dated 2002).

Tested on: co-culture of keratinocytes and melanocytes
Test: Inhibition of melanogenesis (depigmenting activity) in a co-culture of keratinocytes and melanocytes
Format: cell-based
Settings: for Class (maximum depigmenting activity): inhibition of melanogenesis relative to control; for IC50: co-culture of keratinocytes and melanocytes, read-out: IC50 (concentration for which a 50% inhibition of melanogenesis is observed)
Procedure: This test corresponds to the one described in patent FR 2,734,825 filed by the Applicant, as well as in the article by R. Schmidt, P. Krien and M. Régnier, Anal. Biochem., 235(2), 113-18, (1996). This test is thus carried out on a co-culture of keratinocytes and melanocytes.
For each test compound, the IC50 value, which corresponds to the micromolar (μM) concentration for which a 50% inhibition of melanogenesis is observed, is determined.
Moreover, each of these compounds is classed as regards their maximum depigmenting activity:
Class 1: 10 to 30% inhibition of melanogenesis relative to the control (same experiment without test compound);
Class 2: 30 to 60% inhibition of melanogenesis relative to the control (same experiment without test compound);
Class 3: 60 to 100% inhibition of melanogenesis relative to the control (same experiment without test compound).

IC50 | SMILES | Class (maximum depigmenting activity) (200 μM) | Class (maximum depigmenting activity) (1 μM) | Class (maximum depigmenting activity) (500 μM)
50 µM | CCOC(=O)Nc1ccc(OC(=O)OCC)cc1 [Compound of Example 2, N-Ethyloxycarbonyl-O-ethyloxycarbonyl-4-aminophenol] | 3 to 200 | – | –
1 µM | CCOC(=O)Nc1ccc(O)cc1 [Compound of Example 1, N-Ethyloxycarbonyl-4-aminophenol] | – | 3 to 1 μM (Class 3: 60 to 100% inhibition of melanogenesis relative to the control) | –
500 µM | O=c1cc(CO)occ1O [Kojic acid, reference compound] | – | – | 2 to 500

SMILES | IC50 | Class (maximum depigmenting activity) (200 μM) | Class (maximum depigmenting activity) (1 μM) | Class (maximum depigmenting activity) (500 μM)
CC(C)CCC[C@@H](C)[C@H]1CC[C@H]2[C@@H]3CC=C4C[C@@H](OC(=O)Nc5ccc(O)cc5)CC[C@]4(C)[C@H]3CC[C@]12C [Compound of Example 3, N-Cholesteryloxycarbonyl-4-aminophenol] | 10 µM | 3 to 200 | – | –
